According to paper PMC3401165, “Regulation of the Cyanobacterial CO2-Concentrating Mechanism Involves Internal Sensing of NADP^+ and α-Ketogutarate Levels by Transcription Factor CcmR” (PLoS ONE, 2012):

Experiments:
[1] = biological target: T1, CmpR (Synechocystis sp. PCC 6803, UniProt Q55459); experiment: SPR difference curves, CmpR binding to immobilised operator DNA; details: 1.5 µM CmpR; ligand 10, 100, 500 µM; cmpA promoter DNA; effector (co-activator)
T1 construct: heterologously expressed in E. coli by essentially the same approach as His-tagged CcmR
T1 sequence (Q55459 1-304): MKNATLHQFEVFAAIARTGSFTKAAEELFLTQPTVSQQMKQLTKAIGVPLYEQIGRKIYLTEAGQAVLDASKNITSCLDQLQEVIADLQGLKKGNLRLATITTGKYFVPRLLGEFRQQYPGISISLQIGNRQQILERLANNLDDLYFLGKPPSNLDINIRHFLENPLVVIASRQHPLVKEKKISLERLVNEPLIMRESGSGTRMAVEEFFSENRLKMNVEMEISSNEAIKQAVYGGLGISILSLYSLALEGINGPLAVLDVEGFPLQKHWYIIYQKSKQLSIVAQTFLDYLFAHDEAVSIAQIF

[2] = biological target: T2, CcmR (Synechocystis sp. PCC 6803, UniProt P73862); experiment: SPR difference curves, CcmR binding to immobilised operator DNA; details: 1.5 µM CcmR; ligand 10, 100, 500 µM; pndhF3 DNA; 10 mM Pipes pH 7.4, 300 mM NaCl; effector (co-repressor)
T2 construct: gene rbcR; recombinant N-terminally His-tagged, heterologously expressed
T2 sequence (P73862 1-316): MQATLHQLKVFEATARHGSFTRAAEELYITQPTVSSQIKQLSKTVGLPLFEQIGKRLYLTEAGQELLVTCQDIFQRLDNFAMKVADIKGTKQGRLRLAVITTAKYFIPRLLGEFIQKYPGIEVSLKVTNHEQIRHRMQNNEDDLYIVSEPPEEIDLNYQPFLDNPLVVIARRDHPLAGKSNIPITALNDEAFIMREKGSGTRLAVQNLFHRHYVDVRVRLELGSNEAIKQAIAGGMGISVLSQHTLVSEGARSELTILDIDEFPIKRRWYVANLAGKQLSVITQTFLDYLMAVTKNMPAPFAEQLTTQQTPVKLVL

[3] = test system: T3, CcmR (Synechocystis sp. PCC 6803), ORF:206cd751; experiment: SPR; details: SPR: 10 mM Pipes pH 7.4, 300 mM NaCl, 0.02% Tween-20, 25 uL/min, temperature not stated; EMSA: room temperature 20 min, 6% native PAGE (50 mM Tris pH 8.5 …)
T3 sequence: T2 sequence (P73862 1-316)

Row | Compound | SPR difference curves, CmpR binding to immobilised operator DNA [1] | SPR difference curves, CcmR binding to immobilised operator DNA [2] | binding [3]
1 | O=C(O)COP(=O)(O)O [2-phosphoglycolate] | the presence of 2-PG and RuBP increased binding |  | 
2 | NC(=O)c1ccc[n+]([C@@H]2O[C@H](COP(=O)(O)OP(=O)(O)OC[C@H]3O[C@@H](n4cnc5c(N)ncnc54)[C@H](OP(=O)(O)O)[C@@H]3O)[C@@H](O)[C@H]2O)c1 [NADP^+] |  | CcmR only showed modified binding only in the presence of NADP^+ and α-KG | 
3 | O=C(COP(=O)(O)O)[C@H](O)[C@H](O)COP(=O)(O)O [ribulose-1,5-bisphosphate] | the presence of 2-PG and RuBP increased binding |  | 
4 | O=C(O)CCC(=O)C(=O)O [α-KG] |  | CcmR only showed modified binding only in the presence of NADP^+ and α-KG | 
5 | AGTCAAGCGACAATGGTATAACCTAGATGCATAGAAAGAGTGTTATTTGTTACACCATATCATAGGGGAAATAAAATTCCAGATCAACAACCATTTGCTTAAGTGAATGATAAGTCTGGGTAATTGGAGGAAGAGGCAGGCTA (double strand) [pndhF3-2] |  |  | binds
6 | GCTCCCCGGACTAAGCTTGTCAAAATCATTGGCTTTATTCTATCATTGGTTATCTAACAACAATCCCAGGTCTATGAAAGTGAGTGTAATAGCCATAGGTCTATTTTAGTTATTGACTTCAGCACATCCTAGACCCAAG (double strand) [pccmR (SPR)] |  |  | binds
